This is an account of results in patent US9687539B2, “CD4+ T survivin epitopes and uses thereof” (Commissariat a I'Energie Atomique, priority 2005, dated 2017).

The target in test [1] is HLA-DR15 (DRB1*1501) (Homo sapiens, UniProt P01903+P01911). As to the kind of experiment: Competitive HLA II/peptide binding assay, HLA-DR15. To be noted: competition with biotinylated tracer; 3 independent experiments.
Test [2] addresses HLA-DRB4 (DRB4*0101) (Homo sapiens, UniProt P01903+P13762, G164S). As to the kind of experiment: Competitive HLA II/peptide binding assay, HLA-DRB4. The settings on record: competition with biotinylated tracer; 3 independent experiments.
In test [3] the target is T1, HLA-DP402 (DP*0402) (Homo sapiens, UniProt P04440+P20036, A65V/A84D/A85E/L207M).
T1 sequence (P04440 30-258 A65V/A84D/A85E): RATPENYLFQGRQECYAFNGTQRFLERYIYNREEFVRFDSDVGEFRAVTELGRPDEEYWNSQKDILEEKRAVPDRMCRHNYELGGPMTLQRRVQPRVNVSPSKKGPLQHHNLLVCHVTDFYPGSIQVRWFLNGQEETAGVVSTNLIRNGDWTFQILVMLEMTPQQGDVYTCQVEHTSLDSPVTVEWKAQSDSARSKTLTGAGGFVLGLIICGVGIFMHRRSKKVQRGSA
T1 sequence (P20036 29-260): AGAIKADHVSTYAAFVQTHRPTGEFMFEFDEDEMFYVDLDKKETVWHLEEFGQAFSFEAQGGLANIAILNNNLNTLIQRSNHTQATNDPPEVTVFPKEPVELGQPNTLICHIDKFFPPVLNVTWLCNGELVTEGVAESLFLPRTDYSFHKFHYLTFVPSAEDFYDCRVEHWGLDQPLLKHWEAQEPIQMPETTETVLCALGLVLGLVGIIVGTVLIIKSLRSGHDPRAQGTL
Briefly: biochemical. The settings on record: competition with biotinylated tracer; 3 independent experiments; read-out: Binding activity DP402 (IC50).

For test [4], the system named is 12 predominant HLA II molecules. As to the kind of experiment: Binding to the 12 predominant HLA II molecules, summary. Also noted: species or system human. To be noted: for No. of molecules fixed: number of the 12 predominant HLA II molecules bound (IC50 < 1000 nM). From the text:
The assays for binding to HLA II molecules are competitive binding assays with immunoenzymatic visualization, as described in U.S. Pat. No. 6,649,166, Texier et al., J. Immunol., 2000, 164, 3177-3184 and Texier et al., Eur. J. Immunol., 2001, 31, 1837-1846, for the HLA-DR molecules, and in PCT international application WO 03/040299 and Castelli et al., J. Immunol., 2002, 169, 6928-6934, for the HLA-DP4 molecule. The use of these assays for measuring the binding activity of peptides derived from various antigens is illustrated in U.S. Pat. No. 6,649,166 and PCT international applications WO 02/090382, WO 03/040299 and WO 2004/014936.
The sensitivity of each assay is reflected by the IC50 values observed with the nonbiotinylated peptides which correspond to the tracers; the IC50 values of the tracers vary by a factor of less than three.

For test [5], the system named is HLA-DP4-restricted CD4+ T lymphocyte lines. As to the kind of experiment: Immunogenicity in an HLA-DP4 context, IFN-γ ELISPOT. Format: cell-based, human. The settings on record: for Number of spots: peptide presented by HLA-DP4, mean (±SD). The procedure:
HLA-DP4-restricted survivin-specific CD4+ T lymphocyte lines were produced using the mixture of peptides 84-98, 93-107, 90-104 and 19-33 for the stimulation of the autologous dendritic cells, according to a protocol similar to that use for the production of T lymphocyte lines restricted to the set of HLA-DR molecules predominant in the Caucasian population.
The anti-IFN-γ human monoclonal antibody 1-D1K (MABTECH), diluted to 10 μg/ml in PBS buffer, was adsorbed onto nitrocellulose plates (Multiscreen HA; Millipore) for 1 hour at 37° C. The plates were subsequently washed with PBS and then saturated with complete IMDM medium (100 μl/well), for 1 h at 37° C. The antigen-presenting cells are autologous PBMCs, immature autologous dendritic cells prepared as specified above, or a mouse fibroblast line (line L), transfected with the cDNA encoding one of the HLA-DR or HLA-DP4 molecules to be tested (Yu et al. Hum. Immunol. 1990, 27, 132-135), so as to verify the specificity of the lines with respect to the HLA-DR and HLA-DP4 molecules. The antigen-presenting cells (10^5 autologous PBMCs, 3×10^4 transfected L cells or 2×10^4 immature autologous dendritic cells) and the CD4+ T lymphocytes to be tested (10^4 CD4+ T lymphocytes) were subsequently added to the plates and incubated for 24 h at 37° C., in the presence or absence of a single peptide (2 μg), of a mixture of peptides (2 μg of each peptide) or of a protein (Bir5 or Nef). The proteins (1 μM) are incubated for 4 h at 37° C. in the presence of immature dendritic cells, and then washed. The peptides are added directly to the plates. For the dose-response analyses, the peptides are used at various concentrations ranging from 10^−5 to 10^−10 M. After three successive washes with water, and then with PBS buffer-0.05% Tween and, finally, with PBS alone, 100 μl of biotin-conjugated anti-IFN-γ secondary antibody (7-B6-1-biotin, MABTECH), diluted to 0.25 μg/ml in PBS containing 1% BSA, were added to each well. After incubation for one hour, the plates were washed again and incubated with 100 μl/well of extravidin-phosphatase (E-2636, SIGMA), diluted to 1/6000. After washing of the plates in PBS buffer, 100 μl of NBT/BCIP substrate (B-5655, SIGMA), diluted in water (one tablet in 10 ml of water), were distributed into each well. The immunoenzymatic revelation was stopped after approximately 10 minutes by thorough rinsing of the plates in water, and the colored spots were counted using an automatic reader (ELISPOT reader system, AID). The lines are considered to be positive when the number of spots is greater than three times that obtained with the negative control (control without peptides) with a minimum of 50 spots. The control without presenting cells makes it possible to verify the specificity of the response for HLA-DR or HLA-DP4 (restriction control).

The target in test [6] is HLA-DR3 (DRB1*0301) (Homo sapiens, UniProt P01903+P01911, A100K/A102G/A103R/A169T/F55Y/I96L/K41T/L162R/M171V/P40S/Q125H/Q178H/Q39Y/R42S/S66N/T106N/T262R/W38E/Y61H). Briefly: biochemical. To be noted: competition with biotinylated tracer; 3 independent experiments; read-out: Binding activity DR3 (IC50).
Test [7] addresses HLA-DR13 (DRB1*1301) (Homo sapiens, UniProt P01903+P01911, A100E/A169T/K41T/L162R/M171V/P40S/Q125H/Q178H/Q39Y/Q99D/R42S/S66N/T262R/W38E/Y61H). Briefly: Competitive HLA II/peptide binding assay, HLA-DR13.
The target of test [8] is HLA-DRB5 (DRB5*0101) (Homo sapiens, UniProt P01903+Q30154). As to the kind of experiment: Competitive HLA II/peptide binding assay, HLA-DRB5. To be noted: competition with biotinylated tracer; 3 independent experiments.

pIC50: −log10 of the molar value. Read-outs that look alike come from different tables or passages of the source. Residues, ends and D or L forms follow the SMILES beside them. No end group written: not given here.

For `CC[C@H](C)[C@H](NC(=O)[C@H](CCCNC(=N)N)NC(=O)[C@H](Cc1c[nH]cn1)NC(=O)[C@H](CC(=O)O)NC(=O)[C@H](CCCCN)NC(=O)[C@H](CC(C)C)NC(=O)[C@H](Cc1ccccc1)NC(=O)[C@@H]1CCCN1C(=O)[C@H](CCC(N)=O)NC(=O)[C@H](Cc1c[nH]c2ccccc12)NC(=O)[C@H](C)NC(=O)[C@@H]1CCCN1)C(=O)N[C@@H](CO)C(=O)N[C@H](C(=O)N[C@@H](Cc1ccccc1)C(=O)O)[C@@H](C)O` [8-22, P A W Q P F L K D H R I S T F], the pIC50 in test [1] is 5.28; in test [2], 4.54; in test [3] it was 4.98. Moreover, the “No. of molecules fixed” value in test [4] stood at 1.

For `CC(C)C[C@H](NC(=O)[C@H](Cc1ccccc1)NC(=O)[C@@H]1CCCN1C(=O)[C@H](Cc1c[nH]c2ccccc12)NC(=O)[C@H](CC(N)=O)NC(=O)[C@@H](N)CCCCN)C(=O)N[C@@H](CCC(=O)O)C(=O)NCC(=O)N[C@@H](CS)C(=O)N[C@@H](C)C(=O)N[C@@H](CS)C(=O)N[C@H](C(=O)N1CCC[C@H]1C(=O)N[C@@H](CCC(=O)O)C(=O)N[C@@H](CCCNC(=N)N)C(=O)O)[C@@H](C)O` [23-37, K N W P F L E G C A C T P E R] (H-KNWPFLEGCACTPER-OH; N-terminus and C-terminus assumed), in test [4], the “No. of molecules fixed” value was 1.

With `CC(C)C[C@H](NC(=O)[C@H](CC(=O)O)NC(=O)[C@@H]1CCCN1)C(=O)N[C@@H](C)C(=O)N[C@@H](CCC(N)=O)C(=O)N[C@@H](CS)C(=O)N[C@@H](Cc1ccccc1)C(=O)N[C@@H](Cc1ccccc1)C(=O)N[C@@H](CS)C(=O)N[C@@H](Cc1ccccc1)C(=O)N[C@@H](CCCCN)C(=O)N[C@@H](CCC(=O)O)C(=O)N[C@@H](CC(C)C)C(=O)N[C@@H](CCC(=O)O)C(=O)NCC(=O)O` [52-66, P D L A Q C F F C F K E L E G] (H-PDLAQCFFCFKELEG-OH; N-terminus and C-terminus assumed), in test [4], the “Binding specificity for HLA II molecules” value is listed as “bind only to the HLA-DR11 molecule” and the “No. of molecules fixed” value was found to be 1.

Regarding `CC(C)C[C@H](NC(=O)[C@H](CCC(=O)O)NC(=O)[C@H](CCCCN)NC(=O)[C@H](Cc1ccccc1)NC(=O)[C@H](CS)NC(=O)[C@H](Cc1ccccc1)NC(=O)[C@H](Cc1ccccc1)NC(=O)[C@H](CS)NC(=O)[C@@H](N)CCC(N)=O)C(=O)N[C@@H](CCC(=O)O)C(=O)NCC(=O)N[C@@H](Cc1c[nH]c2ccccc12)C(=O)N[C@@H](CCC(=O)O)C(=O)N1CCC[C@H]1C(=O)N[C@@H](CC(=O)O)C(=O)O` [56-70, Q C F F C F K E L E G W E P D] (H-QCFFCFKELEGWEPD-OH; N-terminus and C-terminus assumed), the “No. of molecules fixed” value in test [4] was 1.

On to `CC[C@H](C)[C@H](N)C(=O)N[C@@H](CO)C(=O)N[C@H](C(=O)N[C@@H](Cc1ccccc1)C(=O)N[C@@H](CCCCN)C(=O)N[C@@H](CC(N)=O)C(=O)N[C@@H](Cc1c[nH]c2ccccc12)C(=O)N1CCC[C@H]1C(=O)N[C@@H](Cc1ccccc1)C(=O)N[C@@H](CC(C)C)C(=O)N[C@@H](CCC(=O)O)C(=O)NCC(=O)N[C@@H](CS)C(=O)N[C@@H](C)C(=O)N[C@@H](CS)C(=O)O)[C@@H](C)O` [peptide 19-33, I S T F K N W P F L E G C A C], for which the “No. of molecules fixed” value in test [4] was 7. For the same compound, the Number of spots in test [5] (donor 169, line 169-14) is on record as 1 (±0); in test [5] (donor 169, line 169-34), 228 (±17); in test [5] (donor 169, line 169-56), 195 (±0); in test [5] (donor 171, line 171-3), 5 (±0). Also, the “Immunogenicity in an HLA-DP4 context” value in test [5] (mixture of peptides 84-98, 93-107, 90-104 and 19-33 used for stimulation) is recorded as “immunogenic in an HLA-DP4 context”.

Turning to “E E L T L G E F L K L D R E R (EELTLGEFLKLDRER; listed as Homo sapiens) [94-108, 15-mer of human survivin, positions 94-108; insoluble peptide]”, in test [4], the “No. of molecules fixed” value came to 0.

For “LSVKKQFEELTLGEF [87-101, L S V K K Q F E E L T L G E F]”, the pIC50 is under 4.00 in test [6]; under 4.00 in test [7] (competition with biotinylated tracer, 3 independent experiments, read-out: Binding activity DR13 (IC50)); 5.22 in test [8]. The “No. of molecules fixed” value in test [4] turned out to be 2.

Turning to “QPFLKDHRISTFKNW [11-25, Q P F L K D H R I S T F K N W]”, in test [4], the “No. of molecules fixed” value was determined as 2.

Consider “TERVRLVTRHIYNREE [B1 21-36, reference compound]”, for which the IC50 in test [7] (DRB1*1301, tracer 100 nM, pH 4.5, 72 h, read-out: IC50 (nM) of nonbiotinylated tracer peptide) came to 800 nM.
